# Test results as given in patent publication US11028087B2, “2,6-disubstituted-9-cyclopentyl-9H-purines, use thereof as medicaments, and pharmaceutical compositions” (UNIVERZITA PALACKEHO V OLOMOUCI, priority 2017, dated 2021).
# What was measured:
# FLT3 D835 = molecular target: T1, FLT3 D835 (Homo sapiens, UniProt P36888); assay: Kinase inhibition assay with [γ-33P]ATP; assay type: biochemical; details: AGLT substrate, 1 μM ATP
# T1 sequence (P36888 1-993 D835Y): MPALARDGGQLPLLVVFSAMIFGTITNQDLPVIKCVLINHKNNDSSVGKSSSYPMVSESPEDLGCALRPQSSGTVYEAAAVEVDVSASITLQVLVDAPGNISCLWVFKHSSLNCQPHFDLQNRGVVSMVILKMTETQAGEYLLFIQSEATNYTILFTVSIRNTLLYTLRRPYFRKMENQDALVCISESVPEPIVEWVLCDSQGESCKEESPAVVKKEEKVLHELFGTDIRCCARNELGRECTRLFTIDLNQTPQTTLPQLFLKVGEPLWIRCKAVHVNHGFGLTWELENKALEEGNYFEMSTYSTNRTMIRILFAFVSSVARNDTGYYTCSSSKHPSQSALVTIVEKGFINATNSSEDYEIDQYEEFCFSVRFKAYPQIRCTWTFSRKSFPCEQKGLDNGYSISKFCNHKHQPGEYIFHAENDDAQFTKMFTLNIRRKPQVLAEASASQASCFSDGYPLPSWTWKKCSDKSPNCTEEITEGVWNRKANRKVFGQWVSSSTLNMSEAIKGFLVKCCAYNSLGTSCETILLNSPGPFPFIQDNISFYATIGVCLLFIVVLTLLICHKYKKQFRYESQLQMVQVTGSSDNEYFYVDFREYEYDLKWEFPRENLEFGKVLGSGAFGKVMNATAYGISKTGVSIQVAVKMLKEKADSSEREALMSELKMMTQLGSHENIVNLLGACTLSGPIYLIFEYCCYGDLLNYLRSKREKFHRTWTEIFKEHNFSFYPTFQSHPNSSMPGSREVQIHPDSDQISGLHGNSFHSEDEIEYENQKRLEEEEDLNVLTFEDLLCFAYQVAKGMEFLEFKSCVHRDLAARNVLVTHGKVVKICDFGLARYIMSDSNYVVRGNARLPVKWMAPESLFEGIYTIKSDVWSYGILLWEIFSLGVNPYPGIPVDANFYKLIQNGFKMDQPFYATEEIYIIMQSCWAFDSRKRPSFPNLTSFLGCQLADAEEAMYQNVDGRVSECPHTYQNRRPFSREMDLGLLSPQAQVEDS
# FLT3 WT = molecular target: T2, FLT3 WT (Homo sapiens, UniProt P36888); assay: Kinase inhibition assay with [γ-33P]ATP; assay type: biochemical; details: AGLT substrate, 1 μM ATP
# T2 construct: purchased ProQinase GmbH
# T2 sequence (P36888 27-993): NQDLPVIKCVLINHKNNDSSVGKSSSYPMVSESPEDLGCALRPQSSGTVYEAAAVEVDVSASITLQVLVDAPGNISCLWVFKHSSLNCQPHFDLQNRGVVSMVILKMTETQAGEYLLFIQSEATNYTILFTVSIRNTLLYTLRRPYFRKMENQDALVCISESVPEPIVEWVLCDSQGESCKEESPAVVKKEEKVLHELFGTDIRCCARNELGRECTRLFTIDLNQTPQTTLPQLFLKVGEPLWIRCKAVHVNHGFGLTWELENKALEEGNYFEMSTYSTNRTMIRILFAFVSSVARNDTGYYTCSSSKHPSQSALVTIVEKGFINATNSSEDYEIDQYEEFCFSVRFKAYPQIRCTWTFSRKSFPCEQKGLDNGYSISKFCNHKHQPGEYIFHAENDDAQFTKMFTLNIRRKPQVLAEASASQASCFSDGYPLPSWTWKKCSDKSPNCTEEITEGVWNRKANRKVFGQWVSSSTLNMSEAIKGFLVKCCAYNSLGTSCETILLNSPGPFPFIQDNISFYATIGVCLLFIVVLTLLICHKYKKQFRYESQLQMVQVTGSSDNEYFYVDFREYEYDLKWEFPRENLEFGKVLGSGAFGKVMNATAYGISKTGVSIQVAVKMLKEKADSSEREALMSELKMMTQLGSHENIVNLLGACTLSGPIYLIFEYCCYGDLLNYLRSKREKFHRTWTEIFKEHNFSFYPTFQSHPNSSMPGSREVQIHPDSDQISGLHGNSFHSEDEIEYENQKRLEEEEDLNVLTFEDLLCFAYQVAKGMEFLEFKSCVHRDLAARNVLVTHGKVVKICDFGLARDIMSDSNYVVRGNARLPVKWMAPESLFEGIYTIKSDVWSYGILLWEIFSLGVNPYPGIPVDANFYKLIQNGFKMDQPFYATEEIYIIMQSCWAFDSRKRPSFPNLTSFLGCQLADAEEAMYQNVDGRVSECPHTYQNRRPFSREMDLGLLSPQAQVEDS
# Method in brief: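 Radiometric [γ-33P]ATP assay in HEPES pH 7.5 with Mg2+/Mn2+: CDK1/Cyclin B (Sf9-expressed) and purchased CDK5/p35 with 1 mg/mL histone H1 at 15 and 0.15 μM ATP respectively; FLT3 WT and FLT3-ITD with AGLT substrate at 1 μM ATP. Reactions stopped with H3PO4, spotted onto phosphocellulose and washed.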
SMILES,IC50 (FLT3 D835) [µM],IC50 (FLT3 WT) [µM]
NC1CCC(Nc2nc(Nc3ccc(N4CCOCC4)cc3)c3ncn(C4CCCC4)c3n2)CC1 (centres unmarked) [Compound 1],0.007,0.023
NC1CCC(Nc2nc(Nc3ccc(CN4CCNCC4)cc3)c3ncn(C4CCCC4)c3n2)CC1 (centres unmarked) [Compound 2],0.003,0.015
CN1CCN(C(=O)c2ccc(Nc3nc(NC4CCC(N)CC4)nc4c3ncn4C3CCCC3)cc2)CC1 (centres unmarked) [Compound 3],0.003,0.021
CN1CC2(C1)CN(c1ccc(Nc3nc(NC4CCC(O)CC4)nc4c3ncn4C3CCCC3)cc1)C2 (centres unmarked) [Compound 7],0.011,0.026
NCCNc1nc(Nc2ccc(CN3CCNCC3)cc2)c2ncn(C3CCCC3)c2n1 [Compound 14],0.01,0.014
CN1CCN(C(=O)c2ccc(Nc3nc(NCCCCN)nc4c3ncn4C3CCCC3)cc2)CC1 [Compound 27],0.011,0.019
NCCCCNc1nc(Nc2ccc(N3CC4(COC4)C3)nc2)c2ncn(C3CCCC3)c2n1 [Compound 28],0.002,0.01
CN(C)CCNc1nc(Nc2ccc(CN3CCOCC3)nc2)c2ncn(C3CCCC3)c2n1 [Compound 172],0.005,0.011
NC1CCC(Nc2nc(Nc3ccc(CN4CCOCC4)cc3)c3ncn(C4CCCC4)c3n2)CC1 (centres unmarked) [Compound 264],0.009,0.013
NCCCCNc1nc(Nc2ccc(CN3CCOCC3)cc2)c2ncn(C3CCCC3)c2n1 [Compound 270],0.005,0.006

# More lines, now with the values ahead:
IC50 (FLT3 D835) [µM],IC50 (FLT3 WT) [µM],SMILES
0.023,0.09,CN(C)CCCNc1nc(Nc2ccc(C(=O)N3CCOCC3)nc2)c2ncn(C3CCCC3)c2n1 [Compound 179]
0.011,0.021,NC1CCC(Nc2nc(Nc3ccc(N4CCCC4)cc3)c3ncn(C4CCCC4)c3n2)CC1 (centres unmarked) [Compound 263]
0.007,0.023,NCCCCNc1nc(Nc2ccc(N3CCOCC3)cc2)c2ncn(C3CCCC3)c2n1 [Compound 265]
0.003,0.013,CCN1CCN(c2ccc(Nc3nc(NCCCCN)nc4c3ncn4C3CCCC3)cc2)CC1 [Compound 266]
,0.013,NC1CCC(Nc2nc(Nc3ccc(N4CC5(COC5)C4)cc3)c3ncn(C4CCCC4)c3n2)CC1 (centres unmarked) [Compound 272]
